Like-named read-outs stand apart in the source and are kept apart here.
Legend:
[1] = target: PD-1/PD-L1 interaction (PDL1-6×His protein, PD1-Fc-Avi-Biotin protein) (Homo sapiens, UniProt Q9NZQ7); assay: PDL1/PD1 Binding Assay; details: 0.3 nM PDL1, 2.5 nM PD1
Experimental: Compounds to be tested were serially diluted in DMSO, and further diluted in assay buffer (25 mM Hepes pH 7.4, 150 mM NaCl, 0.005% Tween 20, BSA 0.01%). Diluted compounds were added to the wells with final concentration of DMSO at 1%. PDL1-6×His protein was added to the wells, mixed well with compound. The plates were incubated for 30 min at room temperature. PD1-Fc-Avi-Biotin protein was added to the wells. […] After a binding time of 30 min at room temperature, Anti-6×His Acceptor beads (final concentration 20 ug/ml) were added to the wells, and the incubation continued for 1 h. Streptavidin Donor beads (final concentration 20 ug/mL) were added at reduced light. The plates were sealed with foil and incubated in the dark for additional 1 h or overnight before reading on an Envision reader. The IC50s were determined by fitting the curves using a four-parameter equation in Graphpad Prism 8.

[2] = target: T1, PD-1/PD-L1 interaction (Jurkat cells overexpressing PD-1 co-cultured with PD-L1 expressing CHO cells) (Homo sapiens, UniProt Q9NZQ7); assay: PD-1/PD-L1 NFAT Reporter Assay; format: cell-based; details: Table C-1; Jurkat/CHO co-culture, 6 hrs at 37° C., luciferase activity
T1 construct: expressed in transfected cells; Jurkat cells (PD-1 and NF-AT luciferase construct)
Experimental: Blocking the PD-1/PD-L1 interaction will release the inhibitory signal and results in TCR signaling and NFAT-mediated luciferase activity.
CHO cells expressing surface-bound anti-CD3 antibodies and PD-L1 were first seeded overnight and treated with the compounds. Jurkat cells overexpressing PD-1 and a luciferase construct under NF-AT promoter were then immediately seeded on the monolayer of CHO cells. The co-culture was then incubated for 6 hrs at 37° C. Luciferase activity was assessed by adding the ONE-Glo reagent and measuring luminescence with a plate reader. EC50s values were determined from the fit of the dose-response curves

[3] = Table C-1, read-out: Biological Data Biochem PD-1/PD-L1
[4] = Table C, read-out: PD-1/PD-L1 PPI IC50

T1 sequence (Q9NZQ7 19-290): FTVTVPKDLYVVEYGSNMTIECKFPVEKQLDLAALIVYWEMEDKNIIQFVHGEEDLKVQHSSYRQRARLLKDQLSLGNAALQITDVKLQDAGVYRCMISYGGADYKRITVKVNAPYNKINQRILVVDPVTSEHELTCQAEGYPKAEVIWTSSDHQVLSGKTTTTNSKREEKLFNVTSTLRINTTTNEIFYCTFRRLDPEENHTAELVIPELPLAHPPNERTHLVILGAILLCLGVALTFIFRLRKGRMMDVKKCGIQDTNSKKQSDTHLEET
PD-1/PD-L1 interaction (PDL1-6×His protein, PD1-Fc-Avi-Biotin protein), sequence (Q9NZQ7 19-238 limits assumed): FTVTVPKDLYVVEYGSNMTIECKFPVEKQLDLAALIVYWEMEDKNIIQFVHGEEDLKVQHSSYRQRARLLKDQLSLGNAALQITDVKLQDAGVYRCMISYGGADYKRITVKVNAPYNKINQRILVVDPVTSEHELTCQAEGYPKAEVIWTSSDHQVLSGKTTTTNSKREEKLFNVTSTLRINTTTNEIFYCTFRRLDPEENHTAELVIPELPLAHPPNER

| Structure (SMILES) | IC50 [1, 3] [nM] | EC50 [2] [nM] | IC50 [1, 4] [nM] | PD-1/PD-L1 NFAT Reporter Assay [2] |
| --- | --- | --- | --- | --- |
| O=C(O)C1CN([C@@H]2CCc3cc(-c4cccc(-c5cccc(-c6ccc7c(c6)CC[C@H]7N6CC(C(=O)O)C6)c5Cl)c4Cl)ccc32)C1 (single isomer, unassigned) [Compound M-3B] | ≤ 10 | 100 to 1000 |  |  |
| COc1cc(-c2cccc(-c3cccc(-c4cc5c(c(OC)c4)[C@H](N4CC(C(=O)O)C4)CC5)c3Cl)c2Cl)cc2c1[C@H](N1CC(C(=O)O)C1)CC2 (single isomer, unassigned) [Compound M-4B] | 10 to 100 |  |  | n.r |
| CCOC(=O)C1CN([C@H]2CCc3cc(-c4cccc(-c5cccc(-c6ccc7c(c6)CC[C@@H]7N6CC(C(=O)OCC)C6)c5Cl)c4Cl)ccc32)C1 (single isomer, unassigned) [Compound L-6] | ≤ 10 | 1000 to 10000 |  |  |
| O=C(O)C1CN([C@H]2CCc3cc(-c4cccc(-c5cccc(-c6ccc7c(c6)CC[C@@H]7N6CC(C(=O)O)C6)c5Cl)c4Cl)ccc32)C1 (single isomer, unassigned) [Compound M-2B] | ≤ 10 | 100 to 1000 |  |  |
| COc1cc(-c2cccc(-c3cccc(-c4cc5c(c(OC)c4)C(N4CC(C(=O)O)C4)CC5)c3Cl)c2Cl)cc2c1C(N1CC(C(=O)O)C1)CC2 (centres unmarked) [Compound M-1B] | ≤ 10 | 100 to 1000 |  |  |
| CCOC(=O)C1CN([C@@H]2CCc3cc(-c4cccc(-c5cccc(-c6cc7c(c(OC)c6)[C@H](N6CC(C(=O)OCC)C6)CC7)c5Cl)c4Cl)cc(OC)c32)C1 (single isomer, unassigned) [Compound L-5] | 100 to 1000 |  |  | n.r |
| COc1nc(-c2cccc(-c3cccc(-c4cc5c(c(OC)n4)[C@@H](N4CC6(CN(C(C)=O)C6)C4)CC5)c3Cl)c2F)cc2c1[C@@H](N1CC3(CN(C(C)=O)C3)C1)CC2 (single isomer, unassigned) [Compound L-10] | ≤ 10 | > 10000 | ≤ 10 |  |

Results, then the compound that gave them:

| IC50 [1, 3] [nM] | EC50 [2] [nM] | IC50 [1, 4] [nM] | PD-1/PD-L1 NFAT Reporter Assay [2] | Structure (SMILES) |
| --- | --- | --- | --- | --- |
| ≤ 10 | 1000 to 10000 |  |  | COCCN1CCc2c(cc(-c3cccc(-c4cccc(-c5cc6c(c(OC)n5)CCN(CCOC)C6)c4Cl)c3Cl)nc2OC)C1 [Compound O-1] |
| ≤ 10 | ≤ 10 | ≤ 10 |  | COc1nc(-c2cccc(-c3cccc(-c4cc5c(c(OC)n4)[C@@H](N4CC6(CCC(=O)N6)C4)CC5)c3Cl)c2F)cc2c1[C@@H](N1CC3(CCC(=O)N3)C1)CC2 (single isomer, unassigned) [Compound L-9] |
| ≤ 10 | 100 to 1000 |  |  | CCOC(=O)C1CN([C@H]2CCc3cc(-c4cccc(-c5cccc(-c6cc7c(c(OC)c6)[C@@H](N6CC(C(=O)OCC)C6)CC7)c5Cl)c4Cl)cc(OC)c32)C1 (single isomer, unassigned) [Compound L-4] |
| ≤ 10 | ≤ 10 | ≤ 10 |  | COc1nc(-c2cccc(-c3cccc(-c4cc5c(c(OC)n4)[C@H](N4CC6(CN(C(C)=O)C6)C4)CC5)c3Cl)c2F)cc2c1[C@H](N1CC3(CN(C(C)=O)C3)C1)CC2 (single isomer, unassigned) [Compound L-11] |
| ≤ 10 | ≤ 10 | ≤ 10 |  | COc1nc(-c2cccc(-c3cccc(-c4cc5c(c(OC)n4)[C@@H](NC[C@@H]4CCC(=O)N4)CC5)c3Cl)c2F)cc2c1[C@@H](NC[C@@H]1CCC(=O)N1)CC2 [Compound L-8] |
| ≤ 10 | 100 to 1000 |  |  | CCOC(=O)C1CN([C@@H]2CCc3cc(-c4cccc(-c5cccc(-c6ccc7c(c6)CC[C@H]7N6CC(C(=O)OCC)C6)c5Cl)c4Cl)ccc32)C1 (single isomer, unassigned) [Compound L-7] |
| ≤ 10 | 100 to 1000 |  |  | CCOC(=O)C1CN([C@@H]2CCc3cc(-c4cccc(-c5cccc(-c6ccc7c(c6)CC[C@H]7N6CC(C(=O)O)C6)c5Cl)c4Cl)ccc32)C1 (single isomer, unassigned) [Compound M-3A] |
| ≤ 10 | 100 to 1000 |  |  | CCOC(=O)C1CN([C@H]2CCc3cc(-c4cccc(-c5cccc(-c6ccc7c(c6)CC[C@@H]7N6CC(C(=O)O)C6)c5Cl)c4Cl)ccc32)C1 (single isomer, unassigned) [Compound M-2A] |
|  | 10 to 100 |  |  | CCOC(=O)C1CN([C@H]2CCc3cc(-c4cccc(-c5cccc(-c6cc7c(c(OC)c6)[C@H](NC[C@@H]6CCC(=O)N6)CC7)c5Cl)c4Cl)cc(OC)c32)C1 (single isomer, unassigned) [Compound N-3A] |
